The target of one assay is S1P3 (Homo sapiens (Human), UniProt Q99500). Description: Receptor [35S] GTPγS Binding Assay, S1P3. In kind it is biochemical. The following applies: membranes from EDG3-Ga15-b1a HEK293T cells. The procedure: (§1) Compounds were loaded in a 384 Falcon v-bottom plate (0.5 μl/well in a 11 point, 3-fold dilution). Membranes prepared from S1P1/CHO cells or EDG3-Ga15-b1a HEK293T cells were added to the compound plate (40 μl/well, final protein 3 μg/well) with MULTIDROP®. [^35S] GTP (1250 Ci/mmol, Perkin Elmer) was diluted in assay buffer: 20 mM HEPES, pH7.5, 10 mM MgCl2, 150 mM NaCl, 1 mM EGTA, 1 mM DTT, 10 μM GDP, 0.1% fatty acid free BSA, and 10 μg/ml Saponin to 0.4 nM. 40 μl of the [^35S] GTP solution was added to the compound plate with a final concentration of 0.2 nM. The reaction was kept at room temperature for 45 min. At the end of incubation, all the mixtures in the compound plate were transferred to Millipore 384-well FB filter plates via the VELOCITY 11® Vprep liquid handler. The filter plate was washed with water 4 times by using the manifold Embla plate washer and dried at 60° C. for 45 min. MicroScint 20 scintillation fluid (30 μl) was added to each well for counting on the Packard TOPCOUNT®. EC50 is defined as the agonist concentration that corresponds to 50% of the Ymax (maximal response) obtained for each individual compound tested. The results in Table B were rounded to two digits.
A smaller value for GTPγS S1P1 EC50 value indicated greater activity for the compound in the GTPγS S1P1 binding assay. A larger value for the GTPγS S1P3 EC50 value indicated less activity in the GTPγS S1P3 binding assay.
In general terms: GTPγS resists hydrolysis and so accumulates on activated G proteins.

Assay [1] addresses T1, S1P1 (Homo sapiens (Human), UniProt P21453). Description: Receptor [35S] GTPγS Binding Assay, S1P1. Format: biochemical. The note with it: membranes from S1P1/CHO cells. The procedure: as §1, with “Membranes” for “Compounds were loaded in a 384 Falcon v-bottom plate (0.5 μl/well in a 11 point, 3-fold dilution). Membranes”, “EC50 is defined as the agonist concentration that corresponds to 50% of the Ymax (maximal response) obtained for each individual compound tested.” left out, “digits. […]” for “digits.”

Assay [2] has as its target T1, S1P1. The assay can be described thus: S1P1 Binding Assay. The note with it: 33P-S1P ligand, membranes from CHO cells expressing human S1P1. The procedure: Membranes were prepared from CHO cells expressing human S1P1. Cells pellets (1×10^8 cells/pellet) were suspended in buffer containing 20 mM HEPES, pH 7.5, 50 mM NaCl, 2 mM EDTA and Protease Inhibitor cocktail (Roche), and disrupted on ice using the Polytron homogenizer. The homogenate was centrifuged at 20,000 rpm (48,000 g) and the supernatant was discarded. The membrane pellets were resuspended in buffer containing 50 mM HEPES, pH 7.5, 100 mM NaCl, 1 mM MgCl2, 2 mM EDTA and stored in aliquots at […] after protein concentration determination.
Membranes (2 μg/well) and 0.03 nM final concentration of 33P-S1P ligand (1 mCi/ml, American Radiolabeled Chemicals) diluted in assay buffer (50 mM HEPES, pH7.4, 5 mM MgCl2, 1 mM CaCl2, 0.5% fatty acid free BSA, 1 mM NaF) were added to the compound plates (384 Falcon v-bottom plate (0.5 μl/well in a 11 point, 3-fold dilution). Binding was performed for 45 minutes at room temperature, terminated by collecting the membranes onto 384-well Millipore FB filter plates, and radioactivity was measured by TOPCOUNT®. The competition data of the test compounds over a range of concentrations was plotted as percentage inhibition of radioligand specific binding. The IC50 is defined as the concentration of competing ligand needed to reduce specific binding by 50%.
Table A below lists S1P1 Binding IC50 values from the following examples of this invention measured in the S1P1 binding assay described hereinabove. The results in Table A were rounded to two digits.

Another assay has as its system circulating lymphocytes. Description: Blood Lymphocyte Reduction Assay (BLR) in Rodents. Format: in vivo. The note with it: Lewis rats, oral, 10.0 mg/kg, vs vehicle group. As to the method:
Lewis rats were dosed orally with test article (as a solution or suspension in the vehicle) or vehicle alone (polyethylene glycol 300, “PEG300”). Blood was drawn at 4 hr and 24 h by retro-orbital bleeding. Blood lymphocyte counts were determined on an ADVIA 120 Hematology Analyzer (Siemens Healthcare Diagnostics). The results were measured as a reduction in the percentage of circulating lymphocytes as compared to the vehicle treated group at the 4 hr and 24 hr measurement. The results represent the average results of all animals within each treatment group (n=3-4).
The following examples were tested in the Blood Lymphocyte Reduction assay (BLR) described hereinabove and the results are shown in Table C for rats.

As usually defined, the EC50 is the midpoint of the concentration-response curve. As usually defined, the IC50 is the concentration that gives 50% inhibition. A low value points to greater potency.

T1 sequence (P21453 whole entry): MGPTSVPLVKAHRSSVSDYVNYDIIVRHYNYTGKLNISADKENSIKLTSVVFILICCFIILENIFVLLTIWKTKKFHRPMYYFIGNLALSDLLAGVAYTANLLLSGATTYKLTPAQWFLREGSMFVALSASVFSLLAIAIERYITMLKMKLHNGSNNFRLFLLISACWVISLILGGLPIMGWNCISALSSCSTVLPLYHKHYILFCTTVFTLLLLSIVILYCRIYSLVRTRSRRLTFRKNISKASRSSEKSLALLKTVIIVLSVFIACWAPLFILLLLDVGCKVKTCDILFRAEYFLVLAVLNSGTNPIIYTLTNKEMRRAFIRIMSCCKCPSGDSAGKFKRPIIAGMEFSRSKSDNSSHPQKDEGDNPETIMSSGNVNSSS
Sequence of S1P3 (Q99500 whole entry): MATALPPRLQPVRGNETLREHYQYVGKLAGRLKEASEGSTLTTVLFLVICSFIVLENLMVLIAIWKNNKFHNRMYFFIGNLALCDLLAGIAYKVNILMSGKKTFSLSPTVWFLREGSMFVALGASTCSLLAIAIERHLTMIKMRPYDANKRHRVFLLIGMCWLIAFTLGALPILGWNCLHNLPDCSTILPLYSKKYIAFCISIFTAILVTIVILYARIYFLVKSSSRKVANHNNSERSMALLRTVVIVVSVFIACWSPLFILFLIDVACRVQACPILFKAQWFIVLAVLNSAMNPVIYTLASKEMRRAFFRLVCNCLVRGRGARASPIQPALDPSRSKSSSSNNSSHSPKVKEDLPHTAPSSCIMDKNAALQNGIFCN

Consider `O=C(O)C1CN(Cc2ccc(-c3noc(CCCC4(c5ccc(Cl)cc5)CCCCC4)n3)cc2)C1` [Example 98, 1-(4-(5-(3-(1-(4-chlorophenyl)cyclohexyl)propyl)-1,2,4-oxadiazol-3-yl)benzyl)-3-azetidinecarboxylic acid], for which the EC50 at S1P3 turned out to be 27.4 nM; on S1P1 [1], 0.7 nM. In addition, the IC50 at S1P1 [2] was 0.54 nM.

In the case of `O=C(O)C1CN(Cc2ccc(-c3noc(C/C=C/C4(c5ccc(F)cc5)CCCCC4)n3)cc2)C1` [Example 100, 1-(4-(5-((2E)-3-(1-(4-fluorophenyl)cyclohexyl)-2-propen-1-yl)-1,2,4-oxadiazol-3-yl)benzyl)-3-azetidinecarboxylic acid], the results for the EC50 on S1P3 and at S1P1 [1] were 11.7 nM and 0.41 nM, respectively. This compound also registered an IC50 on S1P1 [2] of 3.4 nM.

`O=C(O)C1CN(Cc2ccc(-c3noc(/C=C/C4(c5ccc(C(F)(F)F)cc5)CCCCC4)n3)cc2)C1` [Example 88, 1-(4-(5-((E)-2-(1-(4-(trifluoromethyl)phenyl)cyclohexyl)vinyl)-1,2,4-oxadiazol-3-yl)benzyl)-3-azetidinecarboxylic acid] displayed an IC50 on S1P1 [2] of 26.7 nM.

`O=C(O)C1CN(Cc2ccc(-c3noc(CCCC4(c5ccccc5)CCCCC4=O)n3)cc2)C1` (stereo not shown) [Example 11, 1-(4-(5-(3-(2-oxo-1-phenylcyclohexyl)propyl)-1,2,4-oxadiazol-3-yl)benzyl)azetidine-3-carboxylic acid]: the EC50 on S1P3 is 58.6 nM; on S1P1 [1] it was 2.17 nM. The same compound yielded an IC50 on S1P1 [2] of 1.68 nM.

For `O=C(O)C1CN(Cc2ccc(-c3noc(CCC4(c5cccnc5)CCOCC4)n3)cc2)C1` [Example 108, 1-(4-(5-(2-(4-(3-pyridinyl)tetrahydro-2H-pyran-4-yl)ethyl)-1,2,4-oxadiazol-3-yl)benzyl)-3-azetidinecarboxylic acid], the EC50 was greater than 62500 nM at S1P3 and 7360 nM at S1P1 [1]. The compound further came in with a half-inhibitory concentration (IC50) at S1P1 [2] of 861 nM.

As to `O=C(O)C1CN(Cc2ccc(-c3noc(CCCC4(c5ccc(F)cc5)CCCCC4)n3)cc2)C1` [Example 9, 1-(4-(5-(3-(1-(4-fluorophenyl)cyclohexyl)propyl)-1,2,4-oxadiazol-3-yl)benzyl)azetidine-3-carboxylic acid], the EC50 came to 16.4 nM at S1P3 and 0.23 nM on S1P1 [1]. This compound returned an IC50 at S1P1 [2] of 0.47 nM.

As to `CC(C)(CCCc1nc(-c2ccc(CN3CC(C(=O)O)C3)cc2)no1)c1ccc(F)cc1` [Example 128, 1-(4-(5-(4-(4-fluorophenyl)-4-methylpentyl)-1,2,4-oxadiazol-3-yl)benzyl)-3-azetidinecarboxylic acid], the “% REDUCTION IN LYMPHOCYTES AT 4 HR.” value with circulating lymphocytes came out at 80%.

Consider `O=C(O)C1CN(Cc2ccc(-c3noc(COCC4(c5ccc(Cl)cc5)CCC4)n3)c(F)c2)C1` [Example 143, 1-(4-(5-(((1-(4-chlorophenyl)cyclobutyl)methoxy)methyl)-1,2,4-oxadiazol-3-yl)-3-fluorobenzyl)-3-azetidinecarboxylic acid], for which the EC50 at S1P3 came out at 3730 nM; at S1P1 [1], 17.5 nM. This compound also returned an IC50 at S1P1 [2] of 9.72 nM.

Turning to `O=C(O)C1CN(Cc2ccc(-c3noc(/C=C/C4(c5ccc(Cl)cc5)CCCCC4)n3)cc2)C1` [Example 92, 1-(4-(5-((E)-2-(1-(4-chlorophenyl)cyclohexyl)vinyl)-1,2,4-oxadiazol-3-yl)benzyl)-3-azetidinecarboxylic acid], the EC50 at S1P3 turned out to be 421 nM; at S1P1 [1] it was 36.9 nM. Besides, the IC50 on S1P1 [2] worked out at 45.6 nM.

Consider `O=C(O)C1CN(Cc2ccc(-c3noc(CCC4(c5ccc(F)cc5)CCCCC4)n3)cc2)C1` [Example 63, 1-(4-(5-(2-(1-(4-fluorophenyl)cyclohexyl)ethyl)-1,2,4-oxadiazol-3-yl)benzyl)-3-azetidinecarboxylic acid], for which the EC50 at S1P3 is 4.94 nM; at S1P1 [1], 2.74 nM. The IC50 at S1P1 [2] was determined as 0.21 nM.

On to `Cc1cc(-c2noc(/C=C/C3(c4ccc(Cl)cc4)CCCCC3)n2)cc(C)c1OC[C@@H](O)CO` [Example 52, (2S)-3-(4-(5-((E)-2-(1-(4-chlorophenyl)cyclohexyl)vinyl)-1,2,4-oxadiazol-3-yl)-2,6-dimethylphenoxy)-1,2-propanediol], for which the results for the EC50 at S1P3 and at S1P1 [1] were 139 nM and 8.1 nM, respectively. Also, the IC50 on S1P1 [2] was determined as 5.75 nM.

Consider `Cc1cc(-c2noc(CCC3(c4ccc(F)cc4)CCCCC3)n2)cc(C)c1OC[C@@H](O)CO` [Example 4], for which the EC50 at S1P3 was 10.2 nM; at S1P1 [1], 0.51 nM. On S1P1 [2], this compound showed an IC50 of 0.12 nM.

On to `O=C(O)C1CN(Cc2ccc(-c3noc(/C=C/C4(Cc5ccccc5)CCC4)n3)cc2)C1` [Example 103, 1-(4-(5-((E)-2-(1-benzylcyclobutyl)vinyl)-1,2,4-oxadiazol-3-yl)benzyl)-3-azetidinecarboxylic acid], for which the EC50 on S1P3 is 1490 nM; at S1P1 [1], 17.1 nM.

`O=C(O)C1CN(Cc2ccc(-c3noc(C(F)(F)C(O)C4(c5ccc(Cl)cc5)CC4)n3)cc2)C1` (stereo not shown) [Example 85, 1-(4-(5-(2-(1-(4-chlorophenyl)cyclopropyl)-1,1-difluoro-2-hydroxyethyl)-1,2,4-oxadiazol-3-yl)benzyl)-3-azetidinecarboxylic acid]: the EC50 at S1P3 was greater than 62500 nM; on S1P1 [1] it was 700 nM. Further, at S1P1 [2], the IC50 amounted to 135 nM.

Consider `O=C(O)C1CN(Cc2ccc(-c3noc(COCC4(c5ccc(Cl)cc5)CCC4)n3)c(Cl)c2)C1` [Example 141, 1-(3-chloro-4-(5-(((1-(4-chlorophenyl)cyclobutyl)methoxy)methyl)-1,2,4-oxadiazol-3-yl)benzyl)-3-azetidinecarboxylic acid], for which the EC50 on S1P3 amounted to 5240 nM; at S1P1 [1], 50.7 nM. Further, the IC50 at S1P1 [2] is 12 nM.

Take `O=C(O)C1CN(Cc2ccc(-c3noc(COCC4(c5ccc(F)cc5)CCCCC4)n3)cc2)C1` [Example 18, 1-(4-(5-(((1-(4-fluorophenyl)cyclohexyl)methoxy)methyl)-1,2,4-oxadiazol-3-yl)benzyl)azetidine-3-carboxylic acid]: the EC50 on S1P3 came out at 9.23 nM; at S1P1 [1] it was 0.78 nM. Moreover, the IC50 at S1P1 [2] was 0.31 nM.

Consider `O=C1NC(=O)C2(CN(Cc3ccc(-c4noc(COCC5(c6ccc(Cl)cc6)CCC5)n4)cc3)C2)N1` [Example 19, 2-(4-(5-(((1-(4-chlorophenyl)cyclobutyl)methoxy)methyl)-1,2,4-oxadiazol-3-yl)benzyl)-2,5,7-triazaspiro[3.4]octane-6,8-dione], for which the EC50 on S1P3 came out at 5380 nM; on S1P1 [1] it was 1270 nM. Moreover, at S1P1 [2], the IC50 is 477 nM.

The values are drawn from patent US8822510B2, “Substituted 3-phenyl-1,2,4-Oxadiazole compounds” (Bristol-Myers Squibb Company, priority 2010, dated 2014).
